Measurements reported in patent publication US20120131697A1, “GENE ENCODING AUXIN RECEPTOR PROTEIN DERIVED FROM RICE AND USE THEREOF” (REPUBLIC OF KOREA (MANAGEMENT: RURAL DEVELOPMENT …, priority 2009, published 2012).

Tests used:
ABP57 = ABP57 (Oryza sativa subsp. japonica, UniProt B7ELI0); assay: Scatchard analysis of binding between recombinant ABP57 and auxin hormone IAA; set-up: species or system rice; conditions: recombinant protein
[1] = system: proton pump in plasma membrane; assay: Activation of proton pump in rice plasma membrane by ABP57 protein (fluorescence analyzer, Hill plot); type: biochemical
Method: The purified protein and the proton pump in plasma membrane, which had been separated from rice, were admixed with each other, and then the activity of proton pump was measured by fluorescence analyzer.
The change in degree of activating proton pump according to concentration of the recombinant protein was measured and analyzed by Hill plot analysis. […] Further, this value was very close to the Hill coefficient of 0.97, which was obtained by previous studies for the interaction between the proton pump and natural ABP57 (FIG. 8).

## O=C(O)Cc1c[nH]c2ccccc12 [IAA, indole-3-acetic acid]
ABP57; FIG. 9, read-out: IAA dissociation constant
  Kd: 3.6 µM
ABP57; corresponds to low affinity binding site of natural ABP57
  number of binding site: 1

B1: recombinant protein: recombinant auxin receptor protein ABP57 from rice, expressed in E. coli as MBP fusion, MBP removed (SEQ ID NO: 1) (protein, listed as Oryza sativa)
chain: MAEIVSSVVVHEAVNQIIHGLVNWNERKSSAEENMERLEMAHIRLEAALETSCKWRITDSSLLCWQKKLKRAAQECDDTLRKCRQRILEQEEAEQEVRNSSIPRRIAHATKSLVSSLFYSNIDGSCRSAVRRFEWFADGANEFLRFVEFGGTPHQYLFFDPLIRQLLAGKTLEYKLVSENKYRLFVIRPFCISENRIEARLIFDSKNASALEDDFFLCMLLQVSESVDILGIVIKCLQLFNPHFMSTAESVRNELTQLPSQDFTWVPYAESCHKKHWDNIHSITTQWFRPNPLCCKQHGQNHSCESSNLGMPSVQGVSLGPVIEVSLQCHVPVPEFREQGTIVKGKPSLKKCPHMKVDLVYTPHGSSQDLLPEIKSSVIEVINGDKQHCLHTNIALELMEEIMLPRAVDCFHENAEAKLYQMLWKSKHGGAYLQVMKATMNTRSTQRTIRGSRKAKLLQQQGHKTQHRTNAISDFLNLWSAHAPVQLQGSILDWIQKEKEAQLAPPLLRLKF
[1]; degree of activating proton pump according to concentration of recombinant protein, Hill plot, FIG. 8
  Hill coefficient: 0.94
[1]; purified recombinant protein admixed with proton pump in plasma membrane separated from rice, FIG. 7
  activity of proton pump: increase in the activity of proton pump
